According to ChEMBL document CHEMBL6114961, “Novel isoxazole thiophene-containing compounds active against Mycobacterium tuberculosis” (Bioorg Med Chem Lett, 2025):
Converted amounts (≈) assume the structure as drawn.

Key:
Assay type in all cases: functional
[1] = test system: Mycobacterium tuberculosis; assay: Antituberculosis activity against Mycobacterium tuberculosis sCHN240 mutant CR1 strain assessed as reduction in bacterial growth
[2] = test system: Mycobacterium tuberculosis; assay: Antituberculosis activity against Mycobacterium tuberculosis sCHN240 mutant CR2 strain assessed as reduction in bacterial growth
[3] = test system: Mycobacterium tuberculosis; assay: Antituberculosis activity against Mycobacterium tuberculosis sCHN240 mutant CR3 strain assessed as reduction in bacterial growth
[4] = test system: Mycobacterium tuberculosis; assay: Antituberculosis activity against Mycobacterium tuberculosis sCHN240 mutant CR5 strain assessed as reduction in bacterial growth
[5] = test system: Mycobacterium tuberculosis; assay: Antituberculosis activity against Mycobacterium tuberculosis sCHN240 mutant CR6 strain assessed as reduction in bacterial growth
[6] = test system: Mycobacterium tuberculosis; assay: Antituberculosis activity against Mycobacterium tuberculosis Rv1625c mutant assessed as reduction in bacterial growth measured after 7 days using 7H9 broth by Alamar blue staining based analysis; settings: time 7 day

In the case of `Cn1ncnc1CC(=O)N1CCC(c2nc(-c3ccc(Cl)c(Cl)c3)no2)CC1`, the MIC90 [1] is reported as greater than 20 µM, the MIC90 [2] is reported as greater than 20 µM and the MIC90 [3] is reported as greater than 20 µM. It also gave an MIC90 [4] greater than 20 µM and an MIC90 [5] greater than 20 µM.
Work on `O=S(=O)(Nc1cc(-c2ccsc2)no1)c1ccccc1F` yielded an MIC90 [6] of 19.9 µM (≈ 6.45 µg/mL).
